Assay results taken from paper PMC10208570, “Peptidomimetic antibiotics disrupt the lipopolysaccharide transport bridge of drug-resistant Enterobacteriaceae” (Science Advances, 2023).
In brackets after ≈: the same amount, converted by molar mass. Where a SMILES comes first, the peptide text is derived from it. Bridges are numbered along the chain shown (N, C = ends). [ ]: non-standard residue; d: D form. Hyp = O=C(O)[C@@H]1C[C@@H](O)CN1; Pen = CC(C)(S)[C@H](N)C(=O)O; dDab = NCC[C@@H](N)C(=O)O; Nle = CCCC[C@H](N)C(=O)O; Dab = NCC[C@H](N)C(=O)O

Assays:
[1] = tested on: Klebsiella pneumoniae NCTC 13443 LptA I36S mutant; assay: microbe, parasite or virus in culture; conditions: Table S9 panel
Procedure: (§1) MIC assays [Clinical and Laboratory Standards Institute (CLSI) methodology] and serial passage studies were performed as described by Luther et al. ([6]). […] Resistant mutants were isolated, and their MIC values were determined and sent to Microbes NG (Birmingham, United Kingdom) for whole-genome sequencing and bioinformatic analysis.

[2] = tested on: Klebsiella pneumoniae ATCC 43816 LptA I36S mutant; assay: microbe, parasite or virus in culture; conditions: Table S9 panel
Procedure: as §1

[3] = tested on: E. coli ATCC 25922 LptA Q62L mutant; assay: microbe, parasite or virus in culture; conditions: CLSI method; clone harboring LptA Q62L
Procedure: as §1

[4] = tested on: K. pneumoniae NCTC 13443 (NDM-1) (parent / WT); assay: microbe, parasite or virus in culture; conditions: CLSI method; parent strain
Procedure: as §1

[5] = tested on: K. pneumoniae ATCC 43816 LptA Q62L mutant; assay: microbe, parasite or virus in culture; conditions: Table S9 panel
Procedure: as §1

[6] = tested on: Klebsiella pneumoniae ATCC 43816 LapB mutant; assay: microbe, parasite or virus in culture; conditions: Table S9 panel; other mutation
Procedure: as §1

[7] = tested on: Escherichia coli ATCC 25922 KdsD mutant; assay: microbe, parasite or virus in culture; conditions: Table S9 panel; other mutation
Procedure: as §1

[8] = tested on: K. pneumoniae ATCC 43816 (parent / WT); assay: microbe, parasite or virus in culture; conditions: ATCC 43816
Procedure: as §1

[9] = tested on: Escherichia coli ATCC 25922 LptA E84D mutant; assay: microbe, parasite or virus in culture; conditions: Table S9 panel
Procedure: as §1

[10] = tested on: E. coli ATCC 25922 (parent / WT); assay: microbe, parasite or virus in culture; conditions: for MIC E. coli ATCC 25922 Parent: CLSI method, parent strain
Procedure: as §1

[11] = tested on: K. pneumoniae NCTC 13443 (NDM-1) LptA Q62L mutant; assay: microbe, parasite or virus in culture; conditions: for MIC K. pneumoniae NCTC 13443 (NDM-1) Q62L mutant: CLSI method, clone harboring LptA Q62L
Procedure: as §1

[12] = tested on: Klebsiella pneumoniae NCTC 13443 LpxC, LpxD mutant; assay: microbe, parasite or virus in culture; conditions: Table S9 panel; other mutation
Procedure: as §1

[13] = tested on: Klebsiella pneumoniae ATCC 43816 PglJ, PhnJ, ThiH mutant; assay: microbe, parasite or virus in culture; conditions: Table S9 panel; other mutation
Procedure: as §1

[14] = tested on: Klebsiella pneumoniae NCTC 13443 YejM mutant; assay: microbe, parasite or virus in culture; conditions: Table S9 panel; other mutation
Procedure: as §1

[15] = tested on: Klebsiella pneumoniae ATCC 43816 LptA L116Q mutant; assay: microbe, parasite or virus in culture; conditions: Table S9 panel
Procedure: as §1

[16] = tested on: Klebsiella pneumoniae ATCC 43816 LptA I36N mutant; assay: microbe, parasite or virus in culture; conditions: Table S9 panel
Procedure: as §1

[17] = Plasma protein binding; assay type: in vitro ADME, human; conditions: human, plasma, pH 7.5
Procedure: (§2) After ultrafiltration, protein binding was determined by subtracting the percentage of compound in ultrafiltrate from the total amount of compound in spiked plasma (table S4A).

[18] = target: T1, LptAmQ62L (Escherichia coli, UniProt P0ADV1, Q62L); assay: biochemical; assay type: binding, E. coli
T1 construct: His6-GB1 (N, cleaved yes); made in house; host or cells: E. coli BL21 (DE3)
Procedure: (§3) Protein stocks were purified and concentrated in buffer 1 [50 mM Na-Pi (pH 7) and 150 mM NaCl] and, if necessary, diluted to desired concentrations using buffer 2 [50 mM Na-Pi (pH 7), 150 mM NaCl, and 0.05% Tween 20]. Peptide stocks and fluorescently labeled peptide stocks were made in buffer 2. Every serial dilution consisted of 24 wells, the first well with the highest concentrate and the last well (well 24) with the lowest. First, 50 μl of buffer 2 was added to the wells 2 to 24 of each serial dilution. Then, 100 μl of concentrated unlabeled peptide/protein in their respective buffers was added to the first well. Fifty microliters were taken from the first well and added to the second well for a 1:1 serial dilution and continued for the 24 wells. […] Plates were covered with adhesive seals and left to incubate overnight at 4°C before FP measurements the next day. Anisotropy was measured using the Tecan Safire2 plate reader using a 10-nm bandwidth and setting the excitation and emission wavelengths to 635 and 670 nm, respectively. The G-factor (G) was also determined empirically as 1.094 for the instrument and included in all the anisotropy calculations.
(§4) For the indirect binding assays, r was calculated in the same manner as the direct binding assays. […] The control was subtracted from r to yield r′. Data were fit to a sigmoidal interpolation model on GraphPad Prism 9, and an IC50 was generated for each unlabeled peptide or protein measured.

[19] = target: T2, LptAm (Escherichia coli, UniProt P0ADV1); assay: biochemical; assay type: binding, E. coli
T2 construct: His6-GB1 (N, cleaved yes); made in house; host or cells: E. coli BL21 (DE3)
Procedure: as §3, §4

[20] = tested on: human red blood cells; assay: Haemolysis; assay type: cell-based; conditions: PBS-washed human red blood cells; 1 h at 200 mg/liter, 37°C; OD 540 nm; versus 100% lysis control 2.5% Triton X-100; biological replicates
Procedure: To test their hemolytic potential, compounds were incubated in the presence of phosphate-buffered saline (PBS)–washed human red blood cells. After 1-hour incubation at 200 mg/liter and 37°C, the samples were centrifuged (3220g), the supernatants were diluted in Dulbecco’s PBS, and optical density at 540 nm was determined. The hemolysis induced by the compound was calculated versus a 100% lysis control prepared with 2.5% Triton X-100 (table S4A).

[21] = in vitro; assay type: cell-based; conditions: human
Procedure: The cytotoxicity of compounds was determined by determining the number of viable cells using the Sigma Cell Counting Kit-8 (WST-8). HeLa cells were incubated at 37°C and 5% CO2 for 24 hours, after which the medium was replaced with fresh medium containing dilutions of compounds. […]

[22] = Plasma protein binding; assay type: in vitro ADME, mouse; conditions: mouse, plasma, pH 7.5
Procedure: as §2

T1 sequence (P0ADV1 28-159 Q62L): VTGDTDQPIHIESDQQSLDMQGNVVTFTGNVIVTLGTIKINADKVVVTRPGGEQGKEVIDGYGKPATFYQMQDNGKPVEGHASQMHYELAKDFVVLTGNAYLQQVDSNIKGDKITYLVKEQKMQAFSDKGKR
T2 sequence (P0ADV1 28-159): as the sequence (P0ADV1 28-159 Q62L) above, with L35Q counted along it

SMILES	MIC E. coli ATCC 25922 Q62L mutant [3] [micrograms per milliliter]	MIC K. pneumoniae NCTC 13443 (NDM-1) Parent [4] [micrograms per milliliter]	MIC K. pneumoniae ATCC 43816 Parent [8] [micrograms per milliliter]	MIC E. coli ATCC 25922 Parent [10] [micrograms per milliliter]	MIC K. pneumoniae NCTC 13443 (NDM-1) Q62L mutant [11] [micrograms per milliliter]	fraction unbound at 30 min, 10 mg/liter [17]	IC50 [18] [µM]	Ki [18] [µM]	IC50 [19] [µM]	Ki [19] [µM]	Haemolysis % at 0.2 g/L [20] [%]	IC50 at 48 h [21] [µM]	fraction unbound at 30 min, 10 mg/liter [22]	further results
CC[C@H](C)[C@H](NC(=O)[C@@H](NC(=O)[C@@H]1C[C@@H](O)CN1C(=O)[C@@H](N)C(C)C)[C@@H](C)CC)C(=O)N[C@@H](Cc1ccc(O)cc1)C(=O)N[C@@H]1C(=O)N[C@@H](CC(N)=O)C(=O)N[C@@H](CCCNC(=N)N)C(=O)N[C@@H](CCN)C(=O)N[C@@H]([C@@H](C)O)C(=O)N[C@H](CCN)C(=O)N[C@@H](CCCCN)C(=O)N[C@H](C(=O)N[C@@H](CCN)C(=O)N[C@@H](CCN)C(=O)N[C@@H](Cc2ccc(O)cc2)C(=O)O)CSSC1(C)C [Compound 5] (H-V[Hyp]IIY[Pen]NR[Dab]T[dDab]KC[Dab][Dab]Y-OH; disulfide 6-13)	0.25	1	0.25	0.063	4	0.18	0.0139 ± 0.0023	0.0094 ± 0.0015	0.0186 ± 0.0011	0.0031 ± 0.0002	0	1270	0.13	MIC Klebsiella pneumoniae NCTC 13443 LptA I36S (2x) [1]: 4 µg/mL (≈ 2.09 µM); MIC Klebsiella pneumoniae ATCC 43816 LptA I36S (1x) [2]: 1 µg/mL (≈ 0.522 µM); MIC Klebsiella pneumoniae ATCC 43816 LptA Q62L (4x) [5]: 4 µg/mL (≈ 2.09 µM); MIC Klebsiella pneumoniae ATCC 43816 LapB (1x) [6]: 0.5 µg/mL (≈ 0.261 µM); MIC Escherichia coli ATCC 25922 KdsD (2x) [7]: 0.5 µg/mL (≈ 0.261 µM); MIC Escherichia coli ATCC 25922 LptA E84D (1x) [9]: 1 µg/mL (≈ 0.522 µM); MIC Escherichia coli ATCC 25922 WT ([10]; Table S9 panel, WT): 0.125 µg/mL (≈ 0.0653 µM); MIC Klebsiella pneumoniae NCTC 13443 LptA Q62L (5x) ([11]; Table S9 panel): 8 µg/mL (≈ 4.18 µM); MIC Klebsiella pneumoniae NCTC 13443 LpxC, LpxD (1x) [12]: 0.5 µg/mL (≈ 0.261 µM); MIC Klebsiella pneumoniae ATCC 43816 PglJ, PhnJ, ThiH (1x) [13]: 0.5 µg/mL (≈ 0.261 µM); MIC Klebsiella pneumoniae NCTC 13443 YejM (1x) [14]: 2 µg/mL (≈ 1.04 µM); MIC Klebsiella pneumoniae ATCC 43816 LptA L116Q (1x) [15]: 1 µg/mL (≈ 0.522 µM); MIC Klebsiella pneumoniae ATCC 43816 LptA I36N (1x) [16]: 1 µg/mL (≈ 0.522 µM)
CCCC[C@H](NC(=O)[C@H](CCCNC(=N)N)NC(=O)[C@H](CCN)NC(=O)[C@@H]1CSSC[C@H](NC(=O)[C@H](Cc2ccc(O)cc2)NC(=O)[C@@H](NC(=O)[C@@H](NC(=O)[C@@H]2CCCN2C(=O)[C@@H](NC(=O)[C@@H]2CCCN2C(=O)[C@H](CCCCN)NC(=O)[C@@H](N)CCCCN)C(C)C)[C@@H](C)CC)[C@@H](C)CC)C(=O)N[C@@H](CC(N)=O)C(=O)N[C@@H](CCCNC(=N)N)C(=O)N[C@@H](CCCNC(=N)N)C(=O)N[C@@H]([C@@H](C)O)C(=O)NCC(=O)N[C@@H](CCCCN)C(=O)N1)C(=O)O [Compound 1] (H-KKPVPIIYCNRRTGKC[Dab]R[Nle]-OH; disulfide 9-16)	>8	0.5	0.25	0.063	>8	0.24	0.0304 ± 0.0088	0.0205 ± 0.006	0.0066 ± 0.0005	0.0011 ± 0.0001	0	158	0.14	
